± gives the standard deviation of the reports.

Compound `*CC(*)C(=O)NCCCCCCCC` (repeat unit) [Poly(N-octyl acrylamide)] yielded a glass transition temperature of -53 °C.
In the case of `*CC(*)C(=O)OCC#N` (repeat unit) [Poly(cyanomethyl acrylate)], the glass transition temperature is 23 °C.
As for `*CC(*)Br` (repeat unit) [Poly(vinyl bromide)], the glass transition temperature is 100 °C.
In the case of `*CC(*)C(=O)CC` (repeat unit) [Poly(vinyl ethyl ketone)], the glass transition temperature is -60 °C.

The source holds these as a separate data set.
As to `*c1nc(C(F)(F)C(F)(F)OC(F)(F)F)nc(C(F)(F)C(F)(F)C(F)(F)C(*)(F)F)n1` (repeat unit) [Perfluoropolymer 2 ], the glass transition temperature is -18.6 ± 0.7 °C.
Consider `*CC=C(C*)CCC` (repeat unit) [Poly(2-n-propyl-1 ,4-butadiene) ], for which the glass transition temperature was -77.6 ± 0.7 °C.

This is another data set of the same source.
`*Oc1ccc(C(c2ccc(Oc3ccc4c(c3)C(=O)N(c3ccc(Cc5ccc(N6C(=O)c7ccc(*)cc7C6=O)cc5)cc3)C4=O)cc2)(C(F)(F)F)C(F)(F)F)cc1` (repeat unit) had a glass transition temperature of 227.00 ± 4.2 °C.
`*CC(N1C(=O)c2ccccc2C1=O)n1c(=O)c2cc3c(=O)n(*)c(=O)c3cc2c1=O` (repeat unit) came in with a glass transition temperature of 190.00 °C.
The compound `*c1ccc(-c2ccc(N3C(=O)c4cc5c(cc4C3=O)C(C(F)(F)F)(C(F)(F)F)c3cc4c(cc3O5)C(=O)N(*)C4=O)cc2C(F)(F)F)c(C(F)(F)F)c1` (repeat unit) showed a glass transition temperature of 420.00 °C.
The compound `*c1ccc(-c2ccc(N3C(=O)c4cc5c(cc4C3=O)C(C(F)(F)F)(C(F)(F)F)c3cc4c(cc3O5)C(=O)N(*)C4=O)cc2OC(F)(F)F)c(OC(F)(F)F)c1` (repeat unit) had a glass transition temperature of 375.00 °C.
For the compound `*c1ccc(-c2ccc(N3C(=O)c4cc5c(cc4C3=O)C(c3ccccc3)(C(F)(F)F)c3cc4c(cc3O5)C(=O)N(*)C4=O)cc2OC(F)(F)F)c(OC(F)(F)F)c1` (repeat unit), the glass transition temperature was 400.00 °C.
In the case of `*c1cccc(Oc2ccc(P(=O)(c3ccccc3)c3ccc(Oc4ccc(-n5c(=O)c6cc7c(=O)n(*)c(=O)c7cc6c5=O)cc4)cc3)cc2)c1` (repeat unit), the glass transition temperature came to 254.00 °C.
Turning to `*c1ccc2c(c1)C(=O)N(c1c(F)c(F)c(-c3c(F)c(F)c(N4C(=O)c5ccc(C(*)(C(F)(F)F)C(F)(F)F)cc5C4=O)c(F)c3F)c(F)c1F)C2=O` (repeat unit), the glass transition temperature was determined as 374.50 ± 15 °C.
Consider `*c1ccc2c(c1)C(=O)N(c1c(F)c(F)c(N3C(=O)c4ccc(C(*)(C(F)(F)F)C(F)(F)F)cc4C3=O)c(F)c1F)C2=O` (repeat unit), for which the glass transition temperature came out at 375.50 ± 6.4 °C.
The compound `*c1ccc2c(c1)C(=O)N(c1cc(C(F)(F)F)c(N3C(=O)c4ccc(C(*)(C(F)(F)F)C(F)(F)F)cc4C3=O)cc1C(F)(F)F)C2=O` (repeat unit) gave a glass transition temperature of 365.00 °C.
As to `*c1ccc2c(c1)C(=O)N(c1cc(N3C(=O)c4ccc([Si](*)(C)C)cc4C3=O)cc(C(F)(F)F)c1)C2=O` (repeat unit), the glass transition temperature worked out at 263.00 °C.
`*c1ccc2c(c1)C(=O)N(c1ccc(-c3ccc(N4C(=O)c5ccc(C(*)(C(F)(F)F)C(F)(F)F)cc5C4=O)cc3Br)c(Br)c1)C2=O` (repeat unit) displayed a glass transition temperature of 329.00 °C.
On the same count and under the same terms, with `*c1ccc2c(c1)C(=O)N(c1ccc(-c3ccc(N4C(=O)c5ccc(C(*)(C(F)(F)F)C(F)(F)F)cc5C4=O)cc3-c3ccc(C(F)(F)F)cc3)c(-c3ccc(C(F)(F)F)cc3)c1)C2=O` (repeat unit) the figure was 283.00 °C; with `*c1ccc2c(c1)C(=O)N(c1ccc(-c3ccc(N4C(=O)c5ccc(C(*)(C(F)(F)F)C(F)(F)F)cc5C4=O)cc3-c3ccc(C)cc3)c(-c3ccc(C)cc3)c1)C2=O` (repeat unit), 286.00 °C.
The compound `*c1ccc2c(c1)C(=O)N(c1ccc(-c3ccc(N4C(=O)c5ccc(C(*)(C(F)(F)F)C(F)(F)F)cc5C4=O)cc3-c3ccc(-c4ccccc4)cc3)c(-c3ccc(-c4ccccc4)cc3)c1)C2=O` (repeat unit) showed a glass transition temperature of 285.00 °C.
In turn, `*c1ccc2c(c1)C(=O)N(c1ccc(-c3ccc(N4C(=O)c5ccc(C(*)(C(F)(F)F)C(F)(F)F)cc5C4=O)cc3I)c(I)c1)C2=O` (repeat unit) registered a glass transition temperature of 319.00 °C.
`*c1ccc2c(c1)C(=O)N(c1ccc(Oc3c(F)c(F)c(Oc4ccc(N5C(=O)c6ccc(C(*)(C(F)(F)F)C(F)(F)F)cc6C5=O)cc4)c(F)c3F)cc1)C2=O` (repeat unit) had a glass transition temperature of 243.80 °C.
Compound `*C(=O)c1ccc2c(c1)C(=O)N(c1cccc(Oc3ccc(P(=O)(c4ccccc4)c4ccc(Oc5ccc(N6C(=O)c7ccc(*)cc7C6=O)cc5)cc4)cc3)c1)C2=O` (repeat unit) came in with a glass transition temperature of 232.00 °C.
The compound `*c1ccc2c(c1)C(=O)N(c1ccc(OCC(F)(F)C(F)(F)C(F)(F)C(F)(F)C(F)(F)C(F)(F)F)c(N3C(=O)c4ccc(C(*)(C(F)(F)F)C(F)(F)F)cc4C3=O)c1)C2=O` (repeat unit) had a glass transition temperature of 228.00 °C.
Consider `*c1ccc2c(c1)C(=O)N(c1ccc(P(=O)(c3ccccc3)c3ccc(N4C(=O)c5ccc(C(*)(C(F)(F)F)C(F)(F)F)cc5C4=O)cc3)cc1)C2=O` (repeat unit), for which the glass transition temperature was determined as 345.00 °C.
`*C(=O)c1ccc2c(c1)C(=O)N(c1ccc(C(=O)c3ccccc3N3C(=O)c4ccc(*)cc4C3=O)cc1)C2=O` (repeat unit) registered a glass transition temperature of 289.00 °C.
With `*c1cccc2c1C(=O)N(c1ccc(C3(c4ccc(N5C(=O)c6cccc(*)c6C5=O)c(C)c4)CCCCC3)cc1C)C2=O` (repeat unit), the glass transition temperature was found to be 302.50 ± 3.5 °C.
The compound `*Sc1ccc2c(c1)C(=O)N(c1cc(Cc3ccc(N4C(=O)c5cccc(*)c5C4=O)c(C)c3)ccc1C)C2=O` (repeat unit) showed a glass transition temperature of 257.50 ± 11 °C.
The compound `*Sc1ccc2c(c1)C(=O)N(c1ccc(N3C(=O)c4cccc(*)c4C3=O)cc1)C2=O` (repeat unit) returned a glass transition temperature of 319.50 ± 0.7 °C.
Still for that read-out and setting: with `*Sc1cccc2c1C(=O)N(c1ccc(Oc3ccc(N4C(=O)c5cccc(*)c5C4=O)cc3)cc1)C2=O` (repeat unit) the figure was 287.00 ± 8.5 °C; with `*C1=C(Cl)C(=O)N(c2cccc(N3C(=O)C(Cl)=C(Oc4ccc(C(C)(C)c5ccc(*)cc5)cc4)C3=O)c2)C1=O` (repeat unit), 163.00 °C; with `*Oc1cccc(C(=O)c2ccc(Oc3ccc4c(c3)C(=O)N(c3cccc(N5C(=O)c6ccc(*)cc6C5=O)c3)C4=O)cc2)c1` (repeat unit), 239.00 °C.
The compound `*c1ccc2c(c1)C(=O)N(c1cccc(Oc3cccc(N4C(=O)c5cccc(*)c5C4=O)c3)c1)C2=O` (repeat unit) showed a glass transition temperature of 245.00 ± 1.5 °C.
For the compound `*Oc1ccc2c(c1)C(=O)N(c1ccc(Oc3ccc(Oc4cccc(N5C(=O)c6cccc(*)c6C5=O)c4)cc3)cc1)C2=O` (repeat unit), the glass transition temperature was 249.00 ± 5.7 °C.
Regarding `*C(=O)c1ccc2c(c1)C(=O)N(c1ccccc1Oc1ccccc1N1C(=O)c3ccc(*)cc3C1=O)C2=O` (repeat unit), the glass transition temperature was 289.00 °C.
Compound `*c1cccc(C(c2cccc(-n3c(=O)c4cc5c(=O)n(*)c(=O)c5cc4c3=O)c2)(C(F)(F)F)C(F)(F)F)c1` (repeat unit) had a glass transition temperature of 296.00 °C.

This is another data set of the same source.
For the compound `*C=Cc1cc(OC)c(*)cc1OCC(CC)CCCC` (repeat unit), the glass transition temperature was 66.00 °C.
The compound `*C=Cc1cc(OC)c(*)cc1OCCC(C)CCCC(C)C` (repeat unit) came in with a glass transition temperature of 50.00 °C.
The compound `*c1ccc2c(c1)C(CCCCCCCC)(CCCCCCCC)c1cc(-c3ccc(-c4ccc(-c5ccc(*)s5)c5cc(-c6ccccc6)c(-c6ccccc6)nc45)s3)ccc1-2` (repeat unit) gave a glass transition temperature of 142.00 °C.
On to `*c1ccc2c3ccc(-c4sc(-c5ccc(-c6cc(CCCCCC)c(*)s6)c6nsnc56)cc4CCCCCC)cc3n(C(CCCCCCCC)CCCCCCCC)c2c1` (repeat unit), for which the glass transition temperature is 74.00 °C.
In turn, `*c1ccc(-c2ccc(OCCCC)c(-c3cc(*)ccc3OCCCC)c2)cc1` (repeat unit) registered a glass transition temperature of 164.00 °C.
For `*c1ccc(-c2ccc(OCCCCCCCCCC)c(-c3cc(*)ccc3OCCCCCCCCCC)c2)cc1` (repeat unit), the glass transition temperature came to 58.00 °C.

Source of the values: the PolyMetriX glass transition set.
